# Measurements as given in patent publication US4141989A, “Fungicidal 3-(N-chloroacetyl-N-arylamino)-gamma-butyrolactone compositions” (Chevron Research Company, priority 1977, dated 1979).
# What was measured:
# [1] = system: Peronospora parasitica ssp. brassicae; experiment: Preventive control of cabbage downy mildew (Example 14, Table IX); type: in vivo; conditions: for % Control: disease reduction relative to check flat
# Phytophthora parasitica = experiment: Tobacco crown and root rot control by soil drench, P. parasitica (Example 19, Table XIV); type: in vivo
# Dermal LD50 (rats) = conditions: rat, in vivo, topical or ocular
# [2] = system: Peronospora parasitica ssp. brassicae; experiment: Curative control of cabbage downy mildew (Example 14, Table IX); type: in vivo; conditions: for % Control: disease reduction relative to check flat
# P. cryptogea = experiment: Tobacco crown and root rot control by soil drench, P. cryptogea (Example 19, Table XIV); type: in vivo
# Plasmopara viticola [3] = experiment: Residual preventive grape downy mildew control, wettable powder (Example 11, Table VI); type: in vivo; conditions: 160 ppm, inoculated 3 days after treatment
# Description: Three-month-old single-bud Cabernet Sauvignon cuttings (cultivated in gravel), containing 5 to 8 leaves, were used as hosts. […] Three days after fungicide treatment, the undersides of the leaves were sprayed with a sporangial suspension of Plasmopara viticola. The inoculated cuttings were put into a misting chamber. Eight to 10 days after the inoculation, the amount of disease control was determined. The percent disease control provided by the test compound was based on the percent disease reduction relative to untreated check cuttings.
# Phytophthora cryptogea [4] = experiment: Safflower crown and root rot control by foliar spray (Example 17, Table XII); type: in vivo
# Phytophthora capsici = experiment: Control of Phytophthora rot in sweet peppers (Example 20, Table XV); type: in vivo; conditions: 50% wettable powder
# Description: The pots were then inoculated with the organism by spreading a bed of oats grain (contaminated with the Phytophthora capsici organism) on the soil surface and covering the bed with a 1-cm depth of sterilized soil. The sweet pepper seedlings were then sprayed to runoff with an aqueous suspension of the test compound at various test concentrations (12 pots per concentration level). The amount of disease control was determined by counting the number of dead plants. The percent disease control provided by the test compound was based on the percent disease reduction relative to untreated check seedlings.
# P. parasitica = experiment: Safflower crown and root rot control by soil drench, P. parasitica (Example 18, Table XIII); type: in vivo
# Phytophthora cryptogea [5] = experiment: Snapdragon crown and root rot control, foliar spray (Example 16, Table XI); type: in vivo; conditions: foliar spray, 100 ppm
# Plasmopara viticola [6] = experiment: Eradicant grape downy mildew control, detached Emperor leaves (Example 6, Table I); type: in vivo; conditions: 48 h, sprayed 2 days after inoculation, read-out: Eradicative Grape Downy Mildew Control, %
# Phytophthora cryptogea [7] = experiment: Safflower crown and root rot control by soil drench, P. cryptogea (Example 18, Table XIII); type: in vivo
# Plasmopara viticola [8] = experiment: Eradicant downy mildew control on grape cuttings, wettable powder (Example 10, Table V); type: in vivo
# Description: Three-month-old single-bud Cabernet Sauvignon cuttings (cultivated in gravel) containing 6 to 10 leaves were used as hosts. The undersides of the leaves were sprayed with a sporangial suspension of Plasmopara viticola containing 510,000 conidia per milliliter of water. The inoculated cuttings were placed into a misting chamber. […] Ten to 11 days after the inoculation, the amount of disease control was determined. The percent disease control provided by the test compound was based on the percent disease reduction relative to untreated check cuttings.
# [9] = 61.5 ppm, treated 3 days after inoculation
# [10] = 62.5 ppm, treated 1 day after inoculation
# [11] = 62.5 ppm, treated 2 days after inoculation
smiles,measurement,setting,value
"Cc1cccc(C)c1N(C(=O)CCl)C1CCOC1=O (centres unmarked) [Compound A, 3-(N-chloroacetyl-N-2,6-dimethylphenylamino)-gamma-butyrolactone]",% Control,[1]; 40 g a.i./hl,97.7%
same,% Diseased Seedlings,[1]; 80 g a.i./hl,1.5%
same,% Control,[1]; 80 g a.i./hl,98.5%
same,"% Control, P. Parasitica",Phytophthora parasitica; 16 ppm,96%
same,"% Control, P. Parasitica",Phytophthora parasitica; 40 ppm,99.8%
same,"% Control, P. Parasitica",Phytophthora parasitica; 100 ppm,100%
same,LD50,Dermal LD50 (rats),> 2000 mg/kg
same,% Diseased Seedlings,[2]; 20 g a.i./hl,1.8%
same,% Control,[2]; 20 g a.i./hl,98.2%
same,% Diseased Seedlings,[2]; 40 g a.i./hl,1.0%
same,% Control,[2]; 40 g a.i./hl,99.0%
same,% Diseased Seedlings,[2]; 80 g a.i./hl,0.6%
same,% Control,[2]; 80 g a.i./hl,99.4%
same,"% Control, P. Cryptogea",P. cryptogea; 16 ppm,96%
same,"% Control, P. Cryptogea",P. cryptogea; 40 ppm,99.8%
same,"% Control, P. Cryptogea",P. cryptogea; 100 ppm,100%
same,% Disease Control,Plasmopara viticola [3],99.8%
same,% Leaf Surface Infected,Plasmopara viticola [3],0.03%
same,% Control,Phytophthora cryptogea [4]; 16 ppm,92%
same,% Control,Phytophthora cryptogea [4]; 40 ppm,97%
same,% Control,Phytophthora cryptogea [4]; 100 ppm,100%
same,% Control,Phytophthora capsici; 100 g/hl,25%
same,% Leaf Surface Damaged,Phytophthora capsici; 100 g/hl,0%
same,% of Alive Seedlings,Phytophthora capsici; 100 g/hl,50%
same,% Control,Phytophthora capsici; 200 g/hl,100%
same,% Leaf Surface Damaged,Phytophthora capsici; 200 g/hl,1.3%
same,% of Alive Seedlings,Phytophthora capsici; 200 g/hl,100%
same,% Control,Phytophthora capsici; 400 g/hl,100%
same,% Leaf Surface Damaged,Phytophthora capsici; 400 g/hl,1.63%
same,% of Alive Seedlings,Phytophthora capsici; 400 g/hl,100%
same,"% Control, P. Parasitica",P. parasitica; 16 ppm,94%
same,"% Control, P. Parasitica",P. parasitica; 40 ppm,99%
same,"% Control, P. Parasitica",P. parasitica; 100 ppm,100%
same,% Control,Phytophthora cryptogea [5],97%
same,pest or weed control at 6.4 ppm,Plasmopara viticola [6]; 6.4 ppm,99%
same,pest or weed control at 100 ppm,Plasmopara viticola [6]; 100 ppm,99%
same,"% Control, P. Cryptogea",Phytophthora cryptogea [7]; 16 ppm,92%
same,"% Control, P. Cryptogea",Phytophthora cryptogea [7]; 40 ppm,97%
same,"% Control, P. Cryptogea",Phytophthora cryptogea [7]; 100 ppm,100%
same,% Disease Control,Plasmopara viticola [8]; [9],84.7%
same,% Leaf Surface Infected,Plasmopara viticola [8]; [9],4.15%
same,% Disease Control,Plasmopara viticola [8]; 62.5 ppm,91.6%
same,% Disease Control,Plasmopara viticola [8]; [10],97.6%
same,% Leaf Surface Infected,Plasmopara viticola [8]; [10],0.51%
same,% Disease Control,Plasmopara viticola [8]; [11],96.2%
same,% Leaf Surface Infected,Plasmopara viticola [8]; [11],0.55%
same,% Leaf Surface Infected,"Plasmopara viticola [8]; 62.5 ppm, treated 5 days after inoculation",2.5%
